# Key:
# [1] = molecular target: T1, p53 Y220C mutant (Homo sapiens, UniProt P04637, Y220C); test: SPR (Biacore 8K); also thermal shift and TR-FRET DNA binding
# T1 construct: gene TP53; Biotinylated DBD of p53-Y220C
# [2] = tested on: A-431; test: cells; parameters: 5-day MTT proliferation assay, absorbance 570 nm, per cent viability of untreated cells, IC50 from XLfit; conditions: Homo sapiens, A-431, 120 h; 5-day MTT proliferation; read-out: PC14586 MTT IC50
# Protocol: (§1) The antiproliferative activity of compounds was evaluated using the MTT (Sigma-Aldrich, Cat. # M5655-1G) assay in a 96-well plate format. Cells were seeded at an appropriate density depending on the growth rate in 96-well microtiter plates, and compounds were tested at eight concentrations with 2-fold serial dilutions. Antiproliferative activity was assessed 5 days later by the conversion of the tetrazolium dye MTT (1 mg/mL) into insoluble formazan by viable cells, which was dissolved in ethanol and measured by a microplate reader for absorbance with a wavelength of 570 nm and a reference wavelength of 650 nm. The results were presented as a percentage of the viability of untreated cells (control). The IC50 was determined from the regression of a plot of the logarithm of concentration versus percentage of viability by XLfit IDBS. The data presented thus far indicate that PC14586 is a potent and selective reactivator of p53-Y220C with strong antiproliferative effects driven by cell-cycle arrest. To further investigate the selectivity and effects on proliferation following treatment with PC14586, additional p53-Y220C, p53 hotspot mutant, and p53-WT cell lines were assessed in a 5-day 3-[4,5-dimethylthiazol-2-yl]-2,5-diphenyl tetrazolium bromide (MTT) assay. […] The less sensitive p53-Y220C cell lines, TE-8 and HCC1419, have an additional p53 mutation. In the case of TE-8, the secondary mutation, M237I, is in the DBD of p53 and has been reported to interfere with p53 DNA binding ([36]). The spectrum of sensitivity to our compounds in cell lines with additional p53 mutations may indicate that monitoring second-site mutations and patient responses could yield mechanistic insights and potential biomarkers.
# [3] = tested on: BxPC-3; test: cells; parameters: 5-day MTT proliferation assay, absorbance 570 nm, per cent viability of untreated cells, IC50 from XLfit; conditions: Homo sapiens, BXPC-3, 120 h; 5-day MTT proliferation; read-out: PC14586 MTT IC50
# Protocol: as §1
# [4] = tested on: C-33A; test: cells; parameters: 5-day MTT proliferation assay, absorbance 570 nm, per cent viability of untreated cells, IC50 from XLfit; conditions: Homo sapiens, C-33-A, 120 h; 5-day MTT proliferation; read-out: PC14586 MTT IC50
# Protocol: as §1
# [5] = tested on: EFE-184; test: cells; parameters: 5-day MTT proliferation assay, absorbance 570 nm, per cent viability of untreated cells, IC50 from XLfit; conditions: Homo sapiens, EFE-184, 120 h; 5-day MTT proliferation; read-out: PC14586 MTT IC50
# Protocol: as §1
# [6] = tested on: HCC1419#; test: cells; parameters: 5-day MTT proliferation assay, absorbance 570 nm, per cent viability of untreated cells, IC50 from XLfit; conditions: Homo sapiens, HCC1419, 120 h; 5-day MTT proliferation; read-out: PC14586 MTT IC50
# Protocol: as §1
# [7] = tested on: HCC2935; test: cells; parameters: 5-day MTT proliferation assay, absorbance 570 nm, per cent viability of untreated cells, IC50 from XLfit; conditions: Homo sapiens, HCC2935, 120 h; 5-day MTT proliferation; read-out: PC14586 MTT IC50
# Protocol: as §1
# [8] = tested on: HCT 116; test: cells; parameters: 5-day MTT proliferation assay, absorbance 570 nm, per cent viability of untreated cells, IC50 from XLfit; conditions: Homo sapiens, HCT-116, 120 h; 5-day MTT proliferation; read-out: PC14586 MTT IC50
# Protocol: as §1
# [9] = tested on: HuH-7; test: cells; parameters: 5-day MTT proliferation assay, absorbance 570 nm, per cent viability of untreated cells, IC50 from XLfit; conditions: Homo sapiens, Huh-7, 120 h; 5-day MTT proliferation; read-out: PC14586 MTT IC50
# Protocol: as §1
# [10] = tested on: KON; test: cells; parameters: 5-day MTT proliferation assay, absorbance 570 nm, per cent viability of untreated cells, IC50 from XLfit; conditions: 120 h; 5-day MTT proliferation; read-out: PC14586 MTT IC50
# Protocol: as §1
# [11] = tested on: MFE-296#; test: cells; parameters: 5-day MTT proliferation assay, absorbance 570 nm, per cent viability of untreated cells, IC50 from XLfit; conditions: Homo sapiens, MFE-296, 120 h; 5-day MTT proliferation; read-out: PC14586 MTT IC50
# Protocol: as §1
# [12] = tested on: NUGC-3_KO; test: cells; parameters: 5-day MTT proliferation assay, absorbance 570 nm, per cent viability of untreated cells, IC50 from XLfit; conditions: 120 h; 5-day MTT proliferation; read-out: PC14586 MTT IC50
# Protocol: as §1
# [13] = tested on: NUGC-3; test: cells; parameters: 5-day MTT proliferation assay, absorbance 570 nm, per cent viability of untreated cells, IC50 from XLfit; conditions: Homo sapiens, NUGC-3, 120 h; 5-day MTT proliferation; read-out: PC14586 MTT IC50
# Protocol: as §1
# [14] = tested on: SF-295; test: cells; parameters: 5-day MTT proliferation assay, absorbance 570 nm, per cent viability of untreated cells, IC50 from XLfit; conditions: Homo sapiens, SF-295, 120 h; 5-day MTT proliferation; read-out: PC14586 MTT IC50
# Protocol: as §1
# [15] = tested on: SJSA-1; test: cells; parameters: 5-day MTT proliferation assay, absorbance 570 nm, per cent viability of untreated cells, IC50 from XLfit; conditions: Homo sapiens, SJSA-1, 120 h; 5-day MTT proliferation; read-out: PC14586 MTT IC50
# Protocol: as §1
# [16] = tested on: SNU-NCC-19; test: cells; parameters: 5-day MTT proliferation assay, absorbance 570 nm, per cent viability of untreated cells, IC50 from XLfit; conditions: 120 h; 5-day MTT proliferation; read-out: PC14586 MTT IC50
# Protocol: as §1
# [17] = tested on: SU.86.86; test: cells; parameters: 5-day MTT proliferation assay, absorbance 570 nm, per cent viability of untreated cells, IC50 from XLfit; conditions: Homo sapiens, SU.86.86, 120 h; 5-day MTT proliferation; read-out: PC14586 MTT IC50
# Protocol: as §1
# [18] = tested on: T3M-4; test: cells; parameters: 5-day MTT proliferation assay, absorbance 570 nm, per cent viability of untreated cells, IC50 from XLfit; conditions: T3M4, 120 h; 5-day MTT proliferation; read-out: PC14586 MTT IC50
# Protocol: as §1
# [19] = tested on: TE-8#; test: cells; parameters: 5-day MTT proliferation assay, absorbance 570 nm, per cent viability of untreated cells, IC50 from XLfit; conditions: Homo sapiens, TE-8, 120 h; 5-day MTT proliferation; read-out: PC14586 MTT IC50
# Protocol: as §1
# [20] = tested on: TOV-112D; test: cells; parameters: 5-day MTT proliferation assay, absorbance 570 nm, per cent viability of untreated cells, IC50 from XLfit; conditions: Homo sapiens, TOV112D, 120 h; 5-day MTT proliferation; read-out: PC14586 MTT IC50
# Protocol: as §1
# T1 sequence (P04637 94-312 limits assumed, stated change not applied): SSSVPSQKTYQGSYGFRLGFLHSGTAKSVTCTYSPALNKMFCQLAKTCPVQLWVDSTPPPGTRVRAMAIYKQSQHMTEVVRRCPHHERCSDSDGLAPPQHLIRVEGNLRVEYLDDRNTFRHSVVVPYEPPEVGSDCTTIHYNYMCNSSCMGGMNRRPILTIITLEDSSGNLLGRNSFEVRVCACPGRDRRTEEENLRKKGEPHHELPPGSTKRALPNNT
smiles,measurement,setting,value
"CNC(=O)c1ccc(NCC#Cc2cc3c(N[C@@H]4CCN(C)C[C@@H]4F)cccc3n2CC(F)(F)F)c(OC)c1 [PC14586, rezatapopt]",Kd,[1],PC14374 and PC14586 both have low nmol/L SC150 and SPR Kd
same,IC50,[2],13.8 µM
same,IC50,[3],0.33 µM
same,IC50,[4],18.5 µM
same,IC50,[5],12.5 µM
same,IC50,[6],4.87 µM
same,IC50,[7],0.4 µM
same,IC50,[8],19.3 µM
same,IC50,[9],0.49 µM
same,IC50,[10],1.05 µM
same,IC50,[11],0.5 µM
same,IC50,[12],15.5 µM
same,IC50,[13],0.59 µM
same,IC50,[14],11.2 µM
same,IC50,[15],> 20 µM
same,IC50,[16],0.23 µM
same,IC50,[17],16.8 µM
same,IC50,[18],1.81 µM
same,IC50,[19],8.66 µM
same,IC50,[20],13 µM

# Reference: publication PMC12130801, “Restoration of the Tumor Suppressor Function of Y220C-Mutant p53 by Rezatapopt, a Small-Molecule Reactivator” (Cancer Discovery, 2025)
